Assay results as given in patent publication US20160046618A1, “Cyclopropyl Fused Thiazin-2-Amine Compounds as Beta-Secretase Inhibitors and Methods of Use” (AMGEN INC., priority 2014, published 2016).

Tests used:
Recombinant Cat D = Recombinant Cat D (Homo sapiens (Human), UniProt P07339); test: In vitro enzymatic Cathepsin D (Cat D) FRET assay; assay type: biochemical; details: read-out: IC50 IP (μM) CatD
How it was run: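 Cleavage of a 20 nM FRET peptide by CHO-derived Cat D over 1 h at pH 3.5 (citrate buffer with CHAPS, 10% DMSO final). Endpoint fluorescence is read after Tris quench.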

human recombinant BACE1 = human recombinant BACE1 (Homo sapiens (Human), UniProt P56817); test: In vitro enzymatic BACE1 FRET assay; assay type: biochemical; details: read-out: IC50 IP (μM) BACE1 enzyme
Sequence of human recombinant BACE1 (P56817 46-501): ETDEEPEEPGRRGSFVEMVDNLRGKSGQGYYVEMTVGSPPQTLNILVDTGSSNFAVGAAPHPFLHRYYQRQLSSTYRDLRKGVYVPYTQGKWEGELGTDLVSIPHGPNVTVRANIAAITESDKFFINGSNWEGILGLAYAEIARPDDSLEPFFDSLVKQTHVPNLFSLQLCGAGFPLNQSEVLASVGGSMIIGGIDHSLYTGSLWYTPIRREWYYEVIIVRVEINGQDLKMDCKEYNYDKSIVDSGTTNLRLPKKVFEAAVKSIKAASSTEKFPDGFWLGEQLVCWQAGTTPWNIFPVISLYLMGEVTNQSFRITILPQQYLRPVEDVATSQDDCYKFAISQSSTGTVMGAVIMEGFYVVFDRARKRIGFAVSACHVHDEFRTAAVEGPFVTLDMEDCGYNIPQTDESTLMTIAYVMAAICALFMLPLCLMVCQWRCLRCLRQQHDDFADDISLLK
How it was run: (§1)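 Read-out: dequenched fluorescence, excitation 488 nm, emission 590 nm, after proteolysis of a quenched peptide spanning the BACE cleavage site. Substrate at 50 nM, 1 h incubation, termination by Tris addition to neutral pH.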

human recombinant BACE2 = human recombinant BACE2 (Homo sapiens (Human), UniProt Q9Y5Z0); test: In vitro enzymatic BACE2 FRET assay; assay type: biochemical; details: read-out: IC50 IP (μM) BACE2 enzyme
Sequence of human recombinant BACE2 (Q9Y5Z0 63-518): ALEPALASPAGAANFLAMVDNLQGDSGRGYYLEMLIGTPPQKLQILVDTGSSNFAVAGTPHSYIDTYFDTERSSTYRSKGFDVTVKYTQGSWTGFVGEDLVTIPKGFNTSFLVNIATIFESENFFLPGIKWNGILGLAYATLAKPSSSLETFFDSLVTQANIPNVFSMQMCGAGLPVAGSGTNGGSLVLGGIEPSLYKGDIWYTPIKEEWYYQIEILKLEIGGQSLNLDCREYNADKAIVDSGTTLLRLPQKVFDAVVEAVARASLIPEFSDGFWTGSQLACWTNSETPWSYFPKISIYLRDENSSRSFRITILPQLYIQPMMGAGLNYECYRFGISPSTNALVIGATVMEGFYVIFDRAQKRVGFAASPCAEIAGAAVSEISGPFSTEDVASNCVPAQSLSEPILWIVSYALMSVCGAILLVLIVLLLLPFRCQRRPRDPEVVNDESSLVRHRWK
How it was run: as §1

[1] = tested on: Aβ40 in conditioned medium of cells stably expressing Amyloid Precursor Protein (APP); test: In vitro BACE-1 cell-based assay (Aβ40 sandwich ELISA); details: read-out: IC50 IP (μM) BACE1 cell
How it was run: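 Read-out: time-resolved fluorescence (Streptavidin-Europium) of Aβ40 captured by pAb40 and detected with biotinylated 6E10 from supernatants of APP-stable cells. Cells were exposed to compound for 24 h, 10-point dose response, top dose 100 μM or 10 μM, 0.1% DMSO. IC50 fitted to percent of control.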

Sequence of Recombinant Cat D (P07339 65-412): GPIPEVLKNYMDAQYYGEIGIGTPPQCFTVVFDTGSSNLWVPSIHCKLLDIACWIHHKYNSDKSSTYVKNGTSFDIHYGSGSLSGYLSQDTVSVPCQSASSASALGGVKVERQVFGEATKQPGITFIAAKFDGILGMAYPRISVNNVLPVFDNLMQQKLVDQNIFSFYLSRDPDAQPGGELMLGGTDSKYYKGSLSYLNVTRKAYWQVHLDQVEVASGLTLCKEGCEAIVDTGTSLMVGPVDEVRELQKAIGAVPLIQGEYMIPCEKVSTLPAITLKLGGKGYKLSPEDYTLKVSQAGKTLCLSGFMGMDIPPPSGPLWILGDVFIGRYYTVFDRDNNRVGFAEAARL

IC50 (Recombinant Cat D) | IC50 (human recombinant BACE1) | IC50 (human recombinant BACE2) | IC50 [1] | Compound
129 µM | 0.000598 µM | 0.017 µM | 0.0072 µM | C#CCOc1cnc(C(=O)Nc2cc(F)c(F)c([C@@]3(C)N=C(N)S[C@@]4(COC)C[C@H]43)c2)c(C)n1 [Example 862, N-(3-((1S,5S,6S)-3-amino-1-(methoxymethyl)-5-methyl-2-thia-4-azabicyclo[4.1.0]hept-3-en-5-yl)-4,5-difluorophenyl)-3-methyl-5-(2-propyn-1-yloxy)-2-pyrazinecarboxamide]
467 µM | 0.00228 µM | 0.0249 µM | 0.00635 µM | COC[C@]12C[C@H]1[C@@](C)(c1cc(NC(=O)c3ncc(OCc4ncco4)nc3C)cc(F)c1F)N=C(N)S2 [Example 863, N-(3-((1S,5S,6S)-3-amino-1-(methoxymethyl)-5-methyl-2-thia-4-azabicyclo[4.1.0]hept-3-en-5-yl)-4,5-difluorophenyl)-3-methyl-5-(1,3-oxazol-2-ylmethoxy)-2-pyrazinecarboxamide]
621 µM | 0.0609 µM | 0.652 µM | 0.172 µM | COC[C@]12C[C@H]1[C@@](C)(c1cc(NC(=O)c3ncc(O[C@@H](C)c4ncco4)nc3C)cc(F)c1F)N=C(N)S2 [Example 864, N-(3-((1S,5S,6S)-3-amino-1-(methoxymethyl)-5-methyl-2-thia-4-azabicyclo[4.1.0]hept-3-en-5-yl)-4,5-difluorophenyl)-3-methyl-5-((1S)-1-(1,3-oxazol-2-yl)ethoxy)-2-pyrazinecarboxamide]
325 µM | 0.000236 µM | 0.0123 µM | 0.00301 µM | CC#CCOc1cnc2c(Nc3ccc(F)c([C@@]4(CF)N=C(N)S[C@@]5(CF)C[C@H]54)c3)nccc2n1 [Example 865, N-(3-((1S,5S,6S)-3-amino-1,5-bis(fluoromethyl)-2-thia-4-azabicyclo[4.1.0]hept-3-en-5-yl)-4-fluorophenyl)-2-(2-butyn-1-yloxy)pyrido[3,4-b]pyrazin-5-amine]
> 400 µM | 0.000941 µM | 0.0285 µM | 0.0115 µM | C[C@]1(c2cc(Nc3nccc4nc(OCc5ncco5)cnc34)cc(F)c2F)N=C(N)S[C@@]2(C(F)F)C[C@@H]12 [Example 866, N-(3-((1S,5S,6S)-3-amino-1-(difluoromethyl)-5-methyl-2-thia-4-azabicyclo[4.1.0]hept-3-en-5-yl)-4,5-difluorophenyl)-2-(1,3-oxazol-2-ylmethoxy)pyrido[3,4-b]pyrazin-5-amine]
299 µM | 0.00171 µM | 0.0549 µM | 0.011 µM | C[C@]1(c2cc(Nc3nccc4nc(OCc5cocn5)cnc34)cc(F)c2F)N=C(N)S[C@@]2(C(F)F)C[C@@H]12 [Example 867, N-(3-((1S,5S,6S)-3-amino-1-(difluoromethyl)-5-methyl-2-thia-4-azabicyclo[4.1.0]hept-3-en-5-yl)-4,5-difluorophenyl)-2-(1,3-oxazol-4-ylmethoxy)pyrido[3,4-b]pyrazin-5-amine]
> 400 µM | 0.000671 µM | 0.0211 µM | 0.0147 µM | CC#CCOc1cnc2c(Nc3cc(F)c(F)c([C@@]4(C)N=C(N)S[C@@]5(C(F)F)C[C@@H]45)c3)nccc2n1 [Example 868, N-(3-((1S,5S,6S)-3-amino-1-(difluoromethyl)-5-methyl-2-thia-4-azabicyclo[4.1.0]hept-3-en-5-yl)-4,5-difluorophenyl)-2-(2-butyn-1-yloxy)pyrido[3,4-b]pyrazin-5-amine]
127 µM | 0.000725 µM | 0.0173 µM | 0.00155 µM | CC#CCOc1cnc2c(Nc3cc(F)c(F)c([C@@]4(C)N=C(N)S[C@@]5(COC)C[C@H]54)c3)nccc2n1 [Example 869, N-(3-((1S,5S,6S)-3-amino-1-(methoxymethyl)-5-methyl-2-thia-4-azabicyclo[4.1.0]hept-3-en-5-yl)-4,5-difluorophenyl)-2-(2-butyn-1-yloxy)pyrido[3,4-b]pyrazin-5-amine]
91.3 µM | 0.00156 µM | 0.0326 µM | 0.02 µM | Cc1nc(COc2cnc3c(Nc4cc(F)c(F)c([C@@]5(C)N=C(N)S[C@@]6(C(F)F)C[C@@H]56)c4)nccc3n2)co1 [Example 870, N-(3-((1S,5S,6S)-3-amino-1-(difluoromethyl)-5-methyl-2-thia-4-azabicyclo[4.1.0]hept-3-en-5-yl)-4,5-difluorophenyl)-2-((2-methyl-1,3-oxazol-4-yl)methoxy)pyrido[3,4-b]pyrazin-5-amine]
352 µM | 0.0183 µM | 0.517 µM | 1.17 µM | C[C@]1(c2cc(Nc3nccc4nc(OCCCF)cnc34)cc(F)c2F)N=C(N)S[C@@]2(C(F)F)C[C@@H]12 [Example 871, N-(3-((1S,5S,6S)-3-amino-1-(difluoromethyl)-5-methyl-2-thia-4-azabicyclo[4.1.0]hept-3-en-5-yl)-4,5-difluorophenyl)-2-(3-fluoropropoxy)pyrido[3,4-b]pyrazin-5-amine]
239 µM | 0.0193 µM | 0.441 µM | 2.66 µM | CC(F)(F)COc1cnc2c(Nc3cc(F)c(F)c([C@@]4(C)N=C(N)S[C@@]5(C(F)F)C[C@@H]45)c3)nccc2n1 [Example 872, N-(3-((1S,5S,6S)-3-amino-1-(difluoromethyl)-5-methyl-2-thia-4-azabicyclo[4.1.0]hept-3-en-5-yl)-4,5-difluorophenyl)-2-(2,2-difluoropropoxy)pyrido[3,4-b]pyrazin-5-amine]
95.1 µM | 0.00175 µM | 0.0358 µM | 0.287 µM | C[C@]1(c2cc(Nc3nccc4nc(OCc5ncccc5F)cnc34)cc(F)c2F)N=C(N)S[C@@]2(C(F)F)C[C@@H]12 [Example 873, N-(3-((1S,5S,6S)-3-amino-1-(difluoromethyl)-5-methyl-2-thia-4-azabicyclo[4.1.0]hept-3-en-5-yl)-4,5-difluorophenyl)-2-((3-fluoro-2-pyridinyl)methoxy)pyrido[3,4-b]pyrazin-5-amine]
956 µM | 0.00361 µM | 0.0755 µM | 0.0245 µM | Cc1ccnc(COc2cnc3c(Nc4cc(F)c(F)c([C@@]5(C)N=C(N)S[C@@]6(C(F)F)C[C@@H]56)c4)nccc3n2)n1 [Example 874, N-(3-((1S,5S,6S)-3-amino-1-(difluoromethyl)-5-methyl-2-thia-4-azabicyclo[4.1.0]hept-3-en-5-yl)-4,5-difluorophenyl)-2-((4-methyl-2-pyrimidinyl)methoxy)pyrido[3,4-b]pyrazin-5-amine]
295 µM | 0.00296 µM | 0.0352 µM | 0.0272 µM | C[C@]1(c2cc(Nc3nccc4nc(OCc5cscn5)cnc34)cc(F)c2F)N=C(N)S[C@@]2(C(F)F)C[C@@H]12 [Example 875, N-(3-((1S,5S,6S)-3-amino-1-(difluoromethyl)-5-methyl-2-thia-4-azabicyclo[4.1.0]hept-3-en-5-yl)-4,5-difluorophenyl)-2-(1,3-thiazol-4-ylmethoxy)pyrido[3,4-b]pyrazin-5-amine]
223 µM | 0.0801 µM | 0.912 µM | 0.587 µM | CC(C)Oc1cnc2c(Nc3cc(F)c(F)c([C@@]4(C)N=C(N)S[C@@]5(C(F)F)C[C@@H]45)c3)nccc2n1 [Example 876, N-(3-((1S,5S,6S)-3-amino-1-(difluoromethyl)-5-methyl-2-thia-4-azabicyclo[4.1.0]hept-3-en-5-yl)-4,5-difluorophenyl)-2-(1-methylethoxy)pyrido[3,4-b]pyrazin-5-amine]
343 µM | 0.011 µM | 0.338 µM | 0.0294 µM | Cc1nnc(COc2cnc3c(Nc4cc(F)c(F)c([C@@]5(C)N=C(N)S[C@@]6(C(F)F)C[C@@H]56)c4)nccc3n2)o1 [Example 877, N-(3-((1S,5S,6S)-3-amino-1-(difluoromethyl)-5-methyl-2-thia-4-azabicyclo[4.1.0]hept-3-en-5-yl)-4,5-difluorophenyl)-2-((5-methyl-1,3,4-oxadiazol-2-yl)methoxy)pyrido[3,4-b]pyrazin-5-amine]
171 µM | 0.231 µM | 0.353 µM | 1.07 µM | CN(C)C(=O)COc1cnc2c(Nc3cc(F)c(F)c([C@@]4(C)N=C(N)S[C@@]5(C(F)F)C[C@@H]45)c3)nccc2n1 [Example 878, 2-((5-((3-((1S,5S,6S)-3-amino-1-(difluoromethyl)-5-methyl-2-thia-4-azabicyclo[4.1.0]hept-3-en-5-yl)-4,5-difluorophenyl)amino)pyrido[3,4-b]pyrazin-2-yl)oxy)-N,N-dimethylacetamide]
2690 µM | 0.00107 µM | 0.282 µM | 0.0179 µM | C#C[C@H](C)Oc1cnc2c(Nc3ccc(F)c([C@@]4(CF)N=C(N)S[C@@]5(CF)C[C@H]54)c3)nccc2n1 [Example 879, N-(3-((1S,5S,6S)-3-amino-1,5-bis(fluoromethyl)-2-thia-4-azabicyclo[4.1.0]hept-3-en-5-yl)-4-fluorophenyl)-2-(((1S)-1-methyl-2-propyn-1-yl)oxy)pyrido[3,4-b]pyrazin-5-amine]
